Assay results taken from paper PMC10507085, “Pharmacological inhibition of TBK1/IKKε blunts immunopathology in a murine model of SARS-CoV-2 infection” (Nature Communications, 2023).

Legend:
Test in all cases: biochemical
Set-up in all cases: KINOMEscan competition binding, DNA-tagged kinase against immobilised ligand, qPCR read-out
Conditions in all cases: read-out: Percent Control
MAPK4 = MAPK4 (Homo sapiens, UniProt P31152)
ERN1 = ERN1 (Homo sapiens, UniProt O75460)
EPHB4 = EPHB4 (Homo sapiens, UniProt P54760)
[1] = target: T1, RSK1(Kin.Dom.1-N-terminal) (Homo sapiens, UniProt Q15418)
T1 construct: gene RPS6KA1; Kin.Dom.1 N-terminal
T1 sequence (Q15418 whole entry): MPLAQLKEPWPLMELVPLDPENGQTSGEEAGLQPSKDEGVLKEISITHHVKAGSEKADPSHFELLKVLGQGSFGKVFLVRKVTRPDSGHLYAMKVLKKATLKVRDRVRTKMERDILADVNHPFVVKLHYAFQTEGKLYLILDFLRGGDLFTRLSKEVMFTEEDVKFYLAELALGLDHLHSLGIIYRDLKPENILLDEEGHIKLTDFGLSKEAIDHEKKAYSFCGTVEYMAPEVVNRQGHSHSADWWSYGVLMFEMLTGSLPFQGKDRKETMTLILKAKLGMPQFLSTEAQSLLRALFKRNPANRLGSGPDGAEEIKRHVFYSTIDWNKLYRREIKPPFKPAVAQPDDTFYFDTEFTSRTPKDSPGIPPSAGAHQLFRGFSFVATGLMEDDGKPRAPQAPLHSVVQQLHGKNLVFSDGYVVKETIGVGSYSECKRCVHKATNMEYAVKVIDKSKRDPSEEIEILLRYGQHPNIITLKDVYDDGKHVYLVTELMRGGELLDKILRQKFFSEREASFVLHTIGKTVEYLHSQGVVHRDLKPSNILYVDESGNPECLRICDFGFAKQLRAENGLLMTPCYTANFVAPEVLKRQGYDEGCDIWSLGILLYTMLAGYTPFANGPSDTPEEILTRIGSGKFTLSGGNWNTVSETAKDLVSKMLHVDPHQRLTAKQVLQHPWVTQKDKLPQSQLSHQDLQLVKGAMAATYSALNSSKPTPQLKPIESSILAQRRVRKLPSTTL

IRAK3 = IRAK3 (Homo sapiens, UniProt Q9Y616)
BRSK1 = BRSK1 (Homo sapiens, UniProt Q8TDC3)
FLT4 = FLT4 (Homo sapiens, UniProt P35916)
STK32B = STK32B (Homo sapiens, UniProt Q9NY57)
Chain of STK32B (Q9NY57 whole entry): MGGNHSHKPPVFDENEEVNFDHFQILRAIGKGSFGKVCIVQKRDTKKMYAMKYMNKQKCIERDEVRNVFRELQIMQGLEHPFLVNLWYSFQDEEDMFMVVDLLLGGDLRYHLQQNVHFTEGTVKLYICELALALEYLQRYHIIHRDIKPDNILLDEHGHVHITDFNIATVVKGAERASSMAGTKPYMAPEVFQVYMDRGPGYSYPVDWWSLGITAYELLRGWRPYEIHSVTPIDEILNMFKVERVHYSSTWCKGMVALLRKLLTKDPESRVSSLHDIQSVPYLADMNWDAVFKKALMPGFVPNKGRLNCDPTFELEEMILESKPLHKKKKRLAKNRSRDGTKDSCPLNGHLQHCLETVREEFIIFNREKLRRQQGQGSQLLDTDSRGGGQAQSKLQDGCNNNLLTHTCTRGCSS

TSSK3 = TSSK3 (Homo sapiens, UniProt Q96PN8)
Chain of TSSK3 (Q96PN8 whole entry): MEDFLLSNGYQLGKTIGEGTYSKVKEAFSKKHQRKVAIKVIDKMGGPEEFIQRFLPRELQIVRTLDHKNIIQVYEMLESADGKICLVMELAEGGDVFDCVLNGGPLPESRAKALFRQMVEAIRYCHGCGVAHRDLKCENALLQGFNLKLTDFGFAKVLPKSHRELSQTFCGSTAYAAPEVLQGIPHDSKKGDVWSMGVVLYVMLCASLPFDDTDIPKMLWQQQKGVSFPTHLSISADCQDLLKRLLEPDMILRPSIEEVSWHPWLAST

FER = FER (Homo sapiens, UniProt P16591)
Chain of FER (P16591 whole entry): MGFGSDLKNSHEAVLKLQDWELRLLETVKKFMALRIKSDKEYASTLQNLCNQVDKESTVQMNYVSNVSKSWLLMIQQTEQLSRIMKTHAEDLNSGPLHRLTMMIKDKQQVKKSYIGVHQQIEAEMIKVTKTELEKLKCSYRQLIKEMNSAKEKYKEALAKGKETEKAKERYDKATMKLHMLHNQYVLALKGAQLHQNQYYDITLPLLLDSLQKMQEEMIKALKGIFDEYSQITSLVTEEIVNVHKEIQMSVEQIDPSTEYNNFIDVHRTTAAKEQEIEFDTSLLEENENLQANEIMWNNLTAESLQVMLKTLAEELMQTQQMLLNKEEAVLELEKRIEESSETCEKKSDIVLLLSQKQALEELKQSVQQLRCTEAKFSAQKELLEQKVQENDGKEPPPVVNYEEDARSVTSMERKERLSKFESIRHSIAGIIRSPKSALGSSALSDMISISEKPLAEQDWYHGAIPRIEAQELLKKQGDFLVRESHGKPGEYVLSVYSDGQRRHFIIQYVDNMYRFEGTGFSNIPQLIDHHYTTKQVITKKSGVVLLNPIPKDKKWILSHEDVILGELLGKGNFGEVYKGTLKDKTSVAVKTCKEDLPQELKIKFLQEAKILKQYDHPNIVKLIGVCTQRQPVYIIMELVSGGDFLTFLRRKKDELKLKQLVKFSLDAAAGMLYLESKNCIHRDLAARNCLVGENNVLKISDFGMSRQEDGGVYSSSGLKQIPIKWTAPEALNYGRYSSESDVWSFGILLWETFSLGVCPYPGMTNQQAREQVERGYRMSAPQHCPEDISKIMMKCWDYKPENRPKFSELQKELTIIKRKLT

NEK10 = NEK10 (Homo sapiens, UniProt Q6ZWH5)
[2] = target: T2, RSK1(Kin.Dom.2-C-terminal) (Homo sapiens, UniProt Q15418)
T2 construct: gene RPS6KA1; Kin.Dom.2 C-terminal
T2 sequence (Q15418 whole entry): as the sequence (Q15418 whole entry) above

RIOK1 = RIOK1 (Homo sapiens, UniProt Q9BRS2)
PNCK = PNCK (Homo sapiens, UniProt Q6P2M8)
Chain of PNCK (Q6P2M8 whole entry): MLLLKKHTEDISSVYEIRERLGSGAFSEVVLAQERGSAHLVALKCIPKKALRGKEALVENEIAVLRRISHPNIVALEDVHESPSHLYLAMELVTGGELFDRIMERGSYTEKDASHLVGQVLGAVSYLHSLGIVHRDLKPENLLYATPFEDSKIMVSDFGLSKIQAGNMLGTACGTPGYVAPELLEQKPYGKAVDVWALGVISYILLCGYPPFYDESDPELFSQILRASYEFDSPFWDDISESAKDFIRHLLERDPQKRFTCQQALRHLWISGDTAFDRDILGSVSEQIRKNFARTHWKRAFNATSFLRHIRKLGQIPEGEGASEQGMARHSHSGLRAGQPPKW

PKMYT1 = PKMYT1 (Homo sapiens, UniProt Q99640)
CAMK2B = CAMK2B (Homo sapiens, UniProt Q13554)
STK39 = STK39 (Homo sapiens, UniProt Q9UEW8)
SYK = SYK (Homo sapiens, UniProt P43405)
ERBB4 = ERBB4 (Homo sapiens, UniProt Q15303)
Chain of ERBB4 (Q15303 whole entry): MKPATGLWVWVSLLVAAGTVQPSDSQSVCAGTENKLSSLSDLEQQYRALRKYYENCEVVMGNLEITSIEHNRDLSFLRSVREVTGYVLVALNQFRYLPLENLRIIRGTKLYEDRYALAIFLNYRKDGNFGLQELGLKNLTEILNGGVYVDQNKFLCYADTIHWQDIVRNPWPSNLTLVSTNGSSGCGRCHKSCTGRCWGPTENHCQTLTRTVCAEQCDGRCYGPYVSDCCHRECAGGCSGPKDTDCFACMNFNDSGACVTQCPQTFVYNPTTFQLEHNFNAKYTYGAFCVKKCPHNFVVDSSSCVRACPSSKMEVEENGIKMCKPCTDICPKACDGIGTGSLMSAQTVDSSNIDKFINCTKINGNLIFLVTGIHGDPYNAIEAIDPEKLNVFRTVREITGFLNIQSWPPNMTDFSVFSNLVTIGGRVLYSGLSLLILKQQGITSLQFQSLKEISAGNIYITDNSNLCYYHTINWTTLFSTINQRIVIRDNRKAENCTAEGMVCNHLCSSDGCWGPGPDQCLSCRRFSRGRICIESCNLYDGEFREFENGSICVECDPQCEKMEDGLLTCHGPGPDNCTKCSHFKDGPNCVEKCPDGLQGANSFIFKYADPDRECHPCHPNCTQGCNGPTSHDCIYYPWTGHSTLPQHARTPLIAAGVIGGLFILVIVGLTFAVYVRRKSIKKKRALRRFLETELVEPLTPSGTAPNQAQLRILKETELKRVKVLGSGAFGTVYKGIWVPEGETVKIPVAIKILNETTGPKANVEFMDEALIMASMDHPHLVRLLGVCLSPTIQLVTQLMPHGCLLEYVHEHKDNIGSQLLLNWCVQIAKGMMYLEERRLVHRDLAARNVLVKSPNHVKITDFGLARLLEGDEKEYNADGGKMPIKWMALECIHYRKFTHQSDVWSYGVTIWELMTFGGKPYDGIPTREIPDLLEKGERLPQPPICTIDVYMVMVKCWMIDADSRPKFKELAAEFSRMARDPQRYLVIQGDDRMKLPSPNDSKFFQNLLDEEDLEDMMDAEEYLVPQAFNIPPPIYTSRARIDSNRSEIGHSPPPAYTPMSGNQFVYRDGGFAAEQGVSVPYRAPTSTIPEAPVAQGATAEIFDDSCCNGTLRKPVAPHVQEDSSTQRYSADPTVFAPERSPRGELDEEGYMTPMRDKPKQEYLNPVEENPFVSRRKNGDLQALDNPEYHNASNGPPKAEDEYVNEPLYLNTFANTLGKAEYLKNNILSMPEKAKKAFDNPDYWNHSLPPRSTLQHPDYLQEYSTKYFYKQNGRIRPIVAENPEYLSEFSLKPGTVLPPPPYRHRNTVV

PHKG1 = PHKG1 (Homo sapiens, UniProt Q16816)

Chain of ERN1 (O75460 whole entry): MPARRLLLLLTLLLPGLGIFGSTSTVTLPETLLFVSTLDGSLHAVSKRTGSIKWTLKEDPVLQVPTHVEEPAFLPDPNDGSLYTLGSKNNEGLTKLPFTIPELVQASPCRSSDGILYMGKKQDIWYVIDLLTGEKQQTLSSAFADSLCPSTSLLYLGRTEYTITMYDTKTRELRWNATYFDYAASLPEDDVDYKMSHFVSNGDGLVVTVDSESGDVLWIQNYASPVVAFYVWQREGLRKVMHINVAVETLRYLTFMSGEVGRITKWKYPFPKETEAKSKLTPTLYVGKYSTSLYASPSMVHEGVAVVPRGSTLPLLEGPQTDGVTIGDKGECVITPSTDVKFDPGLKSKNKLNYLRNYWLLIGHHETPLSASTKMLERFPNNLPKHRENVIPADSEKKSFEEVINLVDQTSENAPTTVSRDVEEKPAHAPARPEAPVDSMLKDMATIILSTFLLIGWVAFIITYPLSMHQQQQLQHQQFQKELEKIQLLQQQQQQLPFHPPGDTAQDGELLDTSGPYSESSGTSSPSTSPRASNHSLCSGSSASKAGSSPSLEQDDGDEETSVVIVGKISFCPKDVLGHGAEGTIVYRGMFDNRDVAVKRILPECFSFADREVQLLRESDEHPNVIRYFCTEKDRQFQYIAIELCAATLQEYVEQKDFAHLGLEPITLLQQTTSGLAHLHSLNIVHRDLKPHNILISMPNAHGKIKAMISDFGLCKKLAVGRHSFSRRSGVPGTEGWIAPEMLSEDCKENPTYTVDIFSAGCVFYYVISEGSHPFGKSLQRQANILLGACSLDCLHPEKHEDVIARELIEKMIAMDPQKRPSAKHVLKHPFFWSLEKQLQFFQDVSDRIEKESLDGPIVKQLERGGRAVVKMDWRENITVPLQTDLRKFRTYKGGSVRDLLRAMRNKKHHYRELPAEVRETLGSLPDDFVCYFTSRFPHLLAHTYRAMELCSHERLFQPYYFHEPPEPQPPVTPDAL

## Oc1ccc(C2=Cc3ccc(O)cc3OC2)cc1 [compound 1, idronoxil]
MAPK4
  remaining binding at 10 µM: 100%
ERN1
  remaining binding at 10 µM: 66%
EPHB4
  remaining binding at 10 µM: 90%
[1]
  remaining binding at 10 µM: 71%
IRAK3
  remaining binding at 10 µM: 77%
BRSK1
  remaining binding at 10 µM: 76%
FLT4
  remaining binding at 10 µM: 100%
STK32B
  remaining binding at 10 µM: 100%
TSSK3
  remaining binding at 10 µM: 59%
FER
  remaining binding at 10 µM: 78%
NEK10
  remaining binding at 10 µM: 69%
[2]
  remaining binding at 10 µM: 69%
RIOK1
  remaining binding at 10 µM: 98%
PNCK
  remaining binding at 10 µM: 74%
PKMYT1
  remaining binding at 10 µM: 78%
CAMK2B
  remaining binding at 10 µM: 83%
STK39
  remaining binding at 10 µM: 71%
SYK
  remaining binding at 10 µM: 62%
ERBB4
  remaining binding at 10 µM: 91%
PHKG1
  remaining binding at 10 µM: 57%
